pIC50: −log10 of the molar value.
Columns and labels:
HeLa cells = assay: Cytotoxicity on HeLa host cells (MTT); type: cell-based; details: Homo sapiens, HeLa, median toxicity dose, cytotoxicity against host cells, 24 h
Method: (§1) The cytotoxicity of compounds was determined using the previously published thiazolyl blue-based colorimetric method. For this, HeLa cells were used as host cells and their ability to resist invasion by T. gondii RH strain tachyzoites in vitro was checked. The cells were plated in 96-well plates at an appropriate density to ensure exponential growth throughout the experimental period (3 × 10^3 cells per well) and then allowed to adhere for 24 h at 37 °C. The cells were infected with T. gondii (1.5 × 10^4 tachyzoites/well), followed by incubation for 24 h. All compounds were prepared in dimethyl sulfoxide (DMSO) at a stock concentration of 100 mM. Serial dilutions (1–1000 μM) of each compound were tested. Spiramycin was used as a positive control. After 24 h of incubation, 10 μL of MTT solution were added to each well and cells were incubated for a further 2 h. The optical density (OD) was read on a microplate reader at a wavelength of 492 nm. The IC50 in HeLa cells, IC50 in T. gondii and selectivity index were calculated using Microsoft Excel.

[1] = system: T. gondii RH strain tachyzoites; assay: In vitro T. gondii growth inhibition in HeLa host cells (MTT); type: cell-based, Toxoplasma gondii; details: for SI (selectivity index): IC50 in HeLa cells/IC50 in T. gondii; for pIC50: Toxoplasma gondii, median inhibitory concentration, tachyzoite inhibition, HeLa host cells, 24 h
Method: as §1

SMILES | pIC50 (HeLa cells) | SI (selectivity index) [1] | pIC50 [1] | melting point [°C]
COc1cc(-n2cc(/C=C3\C[C@]4(C)[C@H]5CC=C6[C@@H]7[C@@H](C)[C@H](C)CC[C@]7(C(=O)O)CC[C@@]6(C)[C@]5(C)CC[C@H]4C(C)(C)C3=O)nn2)cc(OC)c1OC [1j, (1S,2R,4aS,6aS,6bR,8aR,12aR,12bR,14bS,E)-1,2,6a,6b,9,9,12a-heptamethyl-10-oxo-11-((1–(3,4,5-trimethoxyphenyl)-1H-1,2,3-triazol-4-yl)methylene)-1,3,4,5,6,6a,6b,7,8,8a,9,10,11,12,12a,12b,13,14b-octadecahydropicene-4a(2H)-carboxylic acid] | 3.45 | 1.17 | 3.52 | –
C[C@H]1[C@H](C)CC[C@]2(C(=O)OCC(=O)NCc3cn(-c4ccccc4)nn3)CC[C@]3(C)C(=CC[C@@H]4[C@@]5(C)CCC(O)C(C)(C)[C@@H]5CC[C@]43C)[C@H]12 (stereo partly drawn) [2a, (1S,2R,4aS,6aS,6bR,8aR,12aR,12bR,14bS)-2-oxo-2-((1-phenyl-1H-1,2,3-triazol-4-yl)methylamino)ethyl-10-hydroxy-1,2,6a,6b,9,9,12a-heptamethyl-1,2,3,4,4a,5,6,6a,6b,7,8,8a,9,10,11,12,12a,12b,13,14b-icosahydropicene-4a-carboxylate] | 3.08 | – | < 3.00 | 170 to 172
C[C@H]1[C@H](C)CC[C@]2(C(=O)O)CC[C@]3(C)C(=CC[C@@H]4[C@@]5(C)C/C(=C\c6cn(-c7ccccc7F)nn6)C(=O)C(C)(C)[C@@H]5CC[C@]43C)[C@H]12 [1b, (1S,2R,4aS,6aS,6bR,8aR,12aR,12bR,14bS,E)-11-((1–(2-fluorophenyl)-1H-1,2,3-triazol-4-yl)methylene)-1,2,6a,6b,9,9,12a-heptamethyl-10-oxo-1,3,4,5,6,6a,6b,7,8,8a,9,10,11,12,12a,12b,13,14b-octadecahydropicene-4a(2H)-carboxylic acid] | 3.38 | 0.59 | 3.15 | > 250
C[C@H]1[C@H](C)CC[C@]2(C(=O)O)CC[C@]3(C)C(=CC[C@@H]4[C@@]5(C)C/C(=C\c6cn(-c7ccc(Cl)c(Cl)c7)nn6)C(=O)C(C)(C)[C@@H]5CC[C@]43C)[C@H]12 [1f, (1S,2R,4aS,6aS,6bR,8aR,12aR,12bR,14bS,E)-11-((1–(3,4-dichlorophenyl)-1H-1,2,3-triazol-4-yl)methylene)-1,2,6a,6b,9,9,12a-heptamethyl-10-oxo-1,3,4,5,6,6a,6b,7,8,8a,9,10,11,12,12a,12b,13,14b-octadecahydropicene-4a(2H)-carboxylic acid] | 3.39 | 0.88 | 3.34 | > 250
COc1ccccc1-n1cc(/C=C2\C[C@]3(C)[C@H]4CC=C5[C@@H]6[C@@H](C)[C@H](C)CC[C@]6(C(=O)O)CC[C@@]5(C)[C@]4(C)CC[C@H]3C(C)(C)C2=O)nn1 [1i, (1S,2R,4aS,6aS,6bR,8aR,12aR,12bR,14bS,E)-11-((1–(2-methoxyphenyl)-1H-1,2,3-triazol-4-yl)methylene)-1,2,6a,6b,9,9,12a-heptamethyl-10-oxo-1,3,4,5,6,6a,6b,7,8,8a,9,10,11,12,12a,12b,13,14b-octadecahydropicene-4a(2H)-carboxylic acid] | < 3.00 | – | < 3.00 | > 250
C[C@H]1[C@H](C)CC[C@]2(C(=O)OCCn3cnnc3-c3ccccc3)CC[C@]3(C)C(=CC[C@@H]4[C@@]5(C)CCC(O)C(C)(C)[C@@H]5CC[C@]43C)[C@H]12 (stereo partly drawn) [3a, 2 –(3-phenyl-4H-1,2,4-triazol-4-yl)ethyl(1S,2R,4aS,6aS,6bR,8aR,12aR,12bR,14bS)-10-hydroxy-1,2,6a,6b,9,9,12a-heptamethyl-1,3,4,5,6,6a,6b,7,8,8a,9,10,11,12,12a,12b,13,14b-octadecahydropicene-4a(2H)-carboxylate] | 3.99 | 1.15 | 4.06 | –
Cc1ccc(-n2cc(CNC(=O)COC(=O)[C@]34CC[C@@H](C)[C@H](C)[C@H]3C3=CC[C@@H]5[C@@]6(C)CCC(O)C(C)(C)[C@@H]6CC[C@@]5(C)[C@]3(C)CC4)nn2)cc1 (stereo partly drawn) [2d, (1S,2R,4aS,6aS,6bR,8aR,12aR,12bR,14bS)-2-oxo-2-((1-p-tolyl-1H-1,2,3-triazol-4-yl)methylamino)ethyl-10-hydroxy-1,2,6a,6b,9,9,12a-heptamethyl-1,2,3,4,4a,5,6,6a,6b,7,8,8a,9,10,11,12,12a,12b,13,14b-icosahydropicene-4a-carboxylate] | < 3.00 | – | < 3.00 | 186 to 187
C[C@H]1[C@H](C)CC[C@]2(C(=O)O)CC[C@]3(C)C(=CC[C@@H]4[C@@]5(C)C/C(=C\c6cn(-c7ccc(F)cc7)nn6)C(=O)C(C)(C)[C@@H]5CC[C@]43C)[C@H]12 [1d, (1S,2R,4aS,6aS,6bR,8aR,12aR,12bR,14bS,E)-11-((1–(4-fluorophenyl)-1H-1,2,3-triazol-4-yl)methylene)-1,2,6a,6b,9,9,12a-heptamethyl-10-oxo-1,3,4,5,6,6a,6b,7,8,8a,9,10,11,12,12a,12b,13,14b-octadecahydropicene-4a(2H)-carboxylic acid] | < 3.00 | – | < 3.00 | > 250
C[C@H]1[C@H](C)CC[C@]2(C(=O)OCCn3cnnc3-c3ccc(F)cc3)CC[C@]3(C)C(=CC[C@@H]4[C@@]5(C)CCC(O)C(C)(C)[C@@H]5CC[C@]43C)[C@H]12 (stereo partly drawn) [3c, 2 –(3-(4-fluorophenyl)-4H-1,2,4-triazol-4-yl)ethyl(1S,2R,4aS,6aS,6bR,8aR,12aR,12bR,14bS)-10-hydroxy-1,2,6a,6b,9,9,12a-heptamethyl-1,3,4,5,6,6a,6b,7,8,8a,9,10,11,12,12a,12b,13,14b-octadecahydropicene-4a(2H)-carboxylate] | 4.05 | 1.44 | 4.21 | –
C[C@H]1[C@H](C)CC[C@]2(C(=O)O)CC[C@]3(C)C(=CC[C@@H]4[C@@]5(C)C/C(=C\c6cn(-c7ccccc7I)nn6)C(=O)C(C)(C)[C@@H]5CC[C@]43C)[C@H]12 [1h, (1S,2R,4aS,6aS,6bR,8aR,12aR,12bR,14bS,E)-11-((1–(2-iodophenyl)-1H-1,2,3-triazol-4-yl)methylene)-1,2,6a,6b,9,9,12a-heptamethyl-10-oxo-1,3,4,5,6,6a,6b,7,8,8a,9,10,11,12,12a,12b,13,14b-octadecahydropicene-4a(2H)-carboxylic acid] | 3.64 | 0.84 | 3.56 | –
C[C@H]1[C@H](C)CC[C@]2(C(=O)O)CC[C@]3(C)C(=CC[C@@H]4[C@@]5(C)C/C(=C\c6cn(-c7ccccc7Br)nn6)C(=O)C(C)(C)[C@@H]5CC[C@]43C)[C@H]12 [1g, (1S,2R,4aS,6aS,6bR,8aR,12aR,12bR,14bS,E)-11-((1–(2-bromophenyl)-1H-1,2,3-triazol-4-yl)methylene)-1,2,6a,6b,9,9,12a-heptamethyl-10-oxo-1,3,4,5,6,6a,6b,7,8,8a,9,10,11,12,12a,12b,13,14b-octadecahydropicene-4a(2H)-carboxylic acid] | 3.62 | 0.80 | 3.52 | –

From paper PMC6407578, “Synthesis and biological evaluation of ursolic acid derivatives bearing triazole moieties as potential anti-Toxoplasma gondii agents” (Journal of Enzyme Inhibition and Medicinal Chemistry, 2019)
